Measurements reported in patent US20140360376A1, “RECOVERY OF HIGHER ALCOHOLS FROM DILUTE AQUEOUS SOLUTIONS” (GEVO, INC., priority 2007, published 2014).
Several values for one entry are separate records, joined by “and”; a condition that tells them apart may be missing. Equal entries are not always repeated. Where two headings read alike, the source gives them in different places. Values belong to the molecule of their own block, whether it stands above or below them.

Tests used:
[1] = Enrichment/extraction of i-BuOH from aqueous solution by contact with tri-butyl phosphate; assay type: physicochemical; conditions: 25° C.
[2] = Enrichment/extraction of i-BuOH from aqueous solution by contact with decanol; assay type: physicochemical; conditions: 25° C.
[3] = Enrichment/extraction of i-BuOH from aqueous solution by contact with 2-heptanone; assay type: physicochemical; conditions: 25° C.
[4] = Enrichment by glucose addition followed by contact with gasoline; assay type: physicochemical; conditions: for Increase of alcohol concentration in the gasoline phase in the presence of glucose: compared with example 3 (no glucose); for Alcohol Wt % in heavy phase / Alcohol Wt % in light phase / Alcohol Da: gasoline, 20% (w/w) glucose, 24° C.; for Alcohol Da: light/heavy phase
Procedure: (§1) These solutions were then mixed with gasoline. The gasoline used was commercial grade with a 95 octane rating. At equilibrium, phase separation was observed forming an upper alcohol rich phase (light phase) and a lower alcohol lean phase (heavy phase). Both phases were analyzed for alcohol and water content. The distribution coefficient of the alcohol was calculated for each experiment by dividing the alcohol concentration in the light phase by the concentration in the heavy phase. The distribution coefficient for water was calculated accordingly. The Enrichment factor was calculated by dividing the distribution coefficient of alcohol by the distribution coefficient of water. All experiments were carried out at 24° C.

[5] = Enrichment by calcium chloride addition followed by contact with gasoline; assay type: physicochemical; conditions: for Increase of alcohol concentration in the gasoline phase in the presence of calcium chloride: compared with example 3 (no calcium chloride); for Alcohol Wt % in heavy phase / Alcohol Wt % in light phase / Alcohol Da: gasoline, 15% (w/w) calcium chloride, 24° C.; for Alcohol Da: light/heavy phase
Procedure: as §1, with “observed,” for “observed”, “contents.” for “content.”, “phase.” for “phase. The distribution coefficient for water was calculated accordingly. The Enrichment factor was calculated by dividing the distribution coefficient of alcohol by the distribution coefficient of water.”

[6] = Phase separation of 7% butanol or isobutanol solutions by addition of glucose; assay type: physicochemical; conditions: 7% alcohol, glucose 20% (w/w), 25° C.
Procedure: (§2) This example illustrates the induction of phase separation of butanol or isobutanol in water solutions by addition of glucose. […] The light and heavy phases were analyzed for alcohol content for each experiment. All experiments were carried out at 25° C. The distribution coefficient was calculated by division of the concentration of butanol in the light phase by the concentration of butanol in the heavy phase.

[7] = Phase separation of 4% butanol or isobutanol solutions by addition of calcium chloride; assay type: physicochemical; conditions: 4% alcohol, calcium chloride 15% (w/w), 25° C.
Procedure: as §2, with “calcium chloride addition.” for “addition of glucose.”

[8] = Mutual solubility of isobutanol and water as a function of temperature; assay type: physicochemical; conditions: isobutanol-water
Procedure: First, 20 g of water were mixed with 20 g isobutanol in closed vials at room temperature. The vials were then mixed at 5, 10, 20, 40, 60 or 80° C. The vials were held at the stated temperature while being mixed until equilibrium was established. Then the samples were separated into light and heavy phases while being held at temperature. The samples from the light and the heavy phases were analyzed by HPLC and by Karl-Fischer titration.

[9] = Contact of sub-saturated aqueous isobutanol with 3 Angstrom molecular sieve particles; assay type: physicochemical; conditions: 2 g sub-saturated aqueous isobutanol with 1.5 g of 3 Angstrom molecular sieve particles
Procedure: This example illustrates the isobutanol enrichment from aqueous isobutanol solutions using molecular sieves to adsorb water. A sub-saturated solution of isobutanol in water was prepared. Two grams of this solution were thoroughly mixed with 1.5 g of 3 Angstrom molecular sieve particles in a vial. After mixing, the vial was left to settle.

[10] = Enrichment of C3-C6 alcohols from aqueous solutions by contact with octane; assay type: physicochemical; conditions: 24° C.
Procedure: Several aqueous solutions were prepared for each alcohol, differing in their alcohol concentrations, all of which were sub-saturated. […] The phase ratio between the aqueous solution and the solvent differed from one case to the other. Mixing was continued until equilibrium was reached. At equilibrium, phase separation could be observed forming an upper, alcohol-rich phase (light phase) and a lower, alcohol-lean phase (heavy phase). Both phases were analyzed for alcohol and water content. […] The water content of the organic phases was determined by the Karl-Fischer method. These analytical methods were also used for the analyses in the other examples.
The distribution coefficient of the alcohol was calculated for each experiment by dividing the alcohol concentration in the light phase by the alcohol concentration in the heavy phase. Similarly, the distribution coefficient for water was calculated by dividing the water concentration in the light phase by the water concentration in the heavy phase. The enrichment factor was calculated by dividing the distribution coefficient of alcohol by the distribution coefficient of water. In addition, the alcohol to water ratio (w/w) was calculated for the light phase.

[11] = Enrichment of C3-C6 alcohols from aqueous solutions by contact with gasoline; assay type: physicochemical; conditions: 24° C.
Procedure: The gasoline used was commercial grade with a 95 octane rating. […] Both phases were analyzed for alcohol and water content. The distribution coefficient of the alcohol was calculated for each experiment by dividing the alcohol concentration in the light phase by the concentration in the heavy phase. Similarly, the distribution coefficient for water was calculated by dividing the water concentration in the light phase by the water concentration in the heavy phase. The enrichment factor was calculated by dividing the distribution coefficient of alcohol by the distribution coefficient of water. All experiments were carried out at 24° C.

[12] = for Number of phases: aqueous propanol, 25° C.
Procedure: The number of liquid phases present in each mixture at 25° C. was noted.

[13] = Phase separation of aqueous t-butanol by addition of glucose; assay type: physicochemical
Procedure: This example illustrates the induction of phase separation of t-butanol (t-BuOH) in water solution by addition of glucose. An aqueous solution of t-butanol (50% v/v) was prepared at 25° C. and glucose was added to a final concentration of 20% (w/v). […] Both phases were analyzed for t-butanol concentration. The t-BuOH and glucose concentrations in the heavy phase were about 150 g/L and about 45% w/w, respectively. The light phase had about 520 g/L of t-BuOH.

[14] = aqueous i-BuOH heavy phase, equilibrium
[15] = 50% v/v aqueous t-butanol, glucose 20% (w/v), 25° C.

Compound: CC(C)CO [i-BuOH, 2-methyl-1-propanol]
i-BuOH Wt % in heavy phase ([1]; equilibrium): 0.22 Wt % and 1.2 Wt % and 1.9 Wt %
i-BuOH Wt % in light phase ([1]; equilibrium): 1.2 Wt % and 5.6 Wt % and 9.8 Wt %
Enrichment factor ([1]; Da/Dw): 76 and 74 and 82
Distribution coefficient i-BuOH Da ([1]; light/heavy phase): 5.4 and 4.9 and 5.2
Enrichment factor ([2]; Da/Dw, decanol): 116 and 119 and 99
i-BuOH Wt % in heavy phase ([2]; decanol, equilibrium): 1.4 Wt % and 2.2 Wt % and 0.30 Wt %
Distribution coefficient i-BuOH Da ([2]; light/heavy phase, decanol): 5.2 and 5.5 and 3.8
i-BuOH Wt % in heavy phase ([3]; 2-Heptanone, equilibrium): 1.7 Wt % and 2.0 Wt % and 0.44 Wt %
i-BuOH Wt % in light phase ([3]; 2-Heptanone, equilibrium): 5.4 Wt % and 8.4 Wt % and 1.15 Wt %
Enrichment factor ([3]; Da/Dw, 2-Heptanone): 125 and 116 and 155
Distribution coefficient i-BuOH Da ([3]; light/heavy phase, 2-Heptanone): 3.3 and 4.1 and 2.6
Increase of alcohol concentration in the gasoline phase in the presence of glucose [4]: 2 fold
Alcohol Wt % in heavy phase [4]: 1.4 Wt %
Alcohol Wt % in light phase [4]: 1.9 Wt %
Alcohol Da [4]: 1.36
Increase of alcohol concentration in the gasoline phase in the presence of calcium chloride [5]: 4.5 fold
Alcohol Wt % in heavy phase [5]: 0.94 Wt %
Alcohol Wt % in light phase [5]: 3.3 Wt %
Alcohol Da [5]: 3.5
Alcohol in heavy phase (% w/w) [6]: 5.1 % w/w
Alcohol in light phase (% w/w) [6]: 87 % w/w
Concentration in the light phase compared to the starting solution [6]: approximately 12 fold
Distribution coefficient ([6]; light/heavy phase): 17
Alcohol in heavy phase (% w/w) [7]: 2.9 % w/w
Alcohol in light phase (% w/w) [7]: 91 % w/w
Concentration in the light phase compared to the starting solution [7]: approximately 23 fold
Distribution coefficient ([7]; light/heavy phase): 31
Isobutanol Wt % in light phase ([8]; 5° C.): 83.9 Wt %
Isobutanol Wt % in light phase ([8]; 10° C.): 84.0 Wt %
Isobutanol Wt % in light phase ([8]; 20° C.): 83.4 Wt %
Isobutanol Wt % in light phase ([8]; 40° C.): 81.5 Wt %
Isobutanol Wt % in light phase ([8]; 60° C.): 79.1 Wt %
Isobutanol Wt % in light phase ([8]; 80° C.): 76.5 Wt %
Phases observed after settling [9]: two liquid phases

Compound: CCCO [PrOH, propanol]
Alcohol Wt % in heavy phase ([10]; equilibrium): 1.9 Wt % and 5.7 Wt % and 0.66 Wt %
Alcohol Wt % in light phase ([10]; equilibrium): 0.07 Wt % and 0.24 Wt % and 0.03 Wt %
Enrichment factor ([10]; Da/Dw): >80 and >100
Alcohol Wt % in heavy phase ([11]; equilibrium): 5.1 Wt % and 0.61 Wt % and 1.9 Wt %
Alcohol Wt % in light phase ([11]; equilibrium): 0.50 Wt % and 0.08 Wt % and 0.16 Wt %
Enrichment factor ([11]; Da/Dw): >200 and >240 and >160
Miscibility with water ([12]; any proportion, no additive): fully miscible with water
Number of phases ([12]; CaCl2 9.5%): 1
Number of phases ([12]; CaCl2 15.1%): 2
Number of phases ([12]; Glucose 40%): 1
Number of phases ([12]; Glucose 60%): 2
Number of phases ([12]; Sucrose 40%): 2
Number of phases ([12]; no hydrophilic solute): 1

Compound: CCCCCCCCCCO [Decanol, decanol]
Decanol Wt % in heavy phase [2, 14]: 0.0043 Wt % and 0.0053 Wt % and 0.0020 Wt %

Compound: CC(C)(C)O [t-BuOH, 2-methyl-2-propanol]
Enrichment in the light phase compared to the heavy phase (factor) [13, 15]: about 3.5
t-BuOH concentration in the heavy phase [13, 15]: about 150 g/L
t-BuOH concentration in the light phase [13, 15]: about 520 g/L
Miscibility with water ([13]; any proportion, no additive): fully miscible with water

Second part, the molecule after the results:

Increase of alcohol concentration in the gasoline phase in the presence of glucose [4]: greater than 10 fold
Alcohol Wt % in heavy phase [4]: 0.16 Wt %
Alcohol Wt % in light phase [4]: 3.4 Wt %
Alcohol Da [4]: 21
Increase of alcohol concentration in the gasoline phase in the presence of calcium chloride [5]: greater than 10 fold
Alcohol Wt % in heavy phase [5]: 0.14 Wt %
Alcohol Wt % in light phase [5]: 2.2 Wt %
Alcohol Da [5]: 15
Compound: CCCCCO [PenOH, n-Pentanol]

2-Heptanone Wt % in heavy phase [3, 14]: 0.34 Wt % and 0.29 Wt % and 0.40 Wt %
Compound: CCCCCC(C)=O [2-Heptanone]
